Test results reported in US12516056B2, “Compounds for inhibition of janus kinase 1” (MANKIND PHARMA LTD., priority 2019, dated 2026).

Experiments:
[1] = system: STAT3 phosphorylation by IL-6 in TF-1 cells; assay: JAK cellular assay: STAT3 phosphorylation by IL-6 in TF-1 cells (HTRF); format: cell-based; conditions: Homo sapiens, TF-1, TF-1 cells, IL-6 30 ng/ml, pSTAT3 HTRF; read-out: Cell Based Assay (μM) TF-1/IL-6/pSTAT3
How it was run: (§1)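 TF-1 cells starved overnight in low-serum OptiMEM, then 120,000/well in RPMI, preincubated with compound 30 min at 37 °C (0.2% DMSO final). Stimulation 20 min with IL-6 30 ng/ml (pSTAT3) or GMCSF 5 ng/ml (pSTAT5); lysate phospho-STAT by HTRF, unstimulated background subtracted.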

[2] = system: STAT5 phosphorylation by GMCSF in TF-1 cells; assay: JAK cellular assay: STAT5 phosphorylation by GMCSF in TF-1 cells (HTRF); format: cell-based; conditions: Homo sapiens; TF-1 cells, GMCSF 5 ng/ml, pSTAT5 HTRF; read-out: Cell Based Assay (μM) TF-1/GMCSF/pSTAT5
How it was run: as §1

[3] = biological target: T1, Recombinant JAK1 (Homo sapiens, UniProt P23458); assay: JAK biochemical assay (LANCE Ultra TR-FRET), JAK1; conditions: recombinant JAK1, TR-FRET; read-out: Biochemical Assay (μM) JAK1
T1 construct: purchased Carna Biosciences
How it was run: (§2)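 TR-FRET read-out of ULight substrate phosphorylation by recombinant kinase gives % inhibition relative to vehicle. The assay buffer is HEPES pH 7.5 with EGTA, MgCl2, DTT and Tween-20.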

[4] = system: STAT5 phosphorylation by IL-2 in HT-2 cells; assay: STAT5 phosphorylation by IL-2 in HT-2 cells (HTRF); format: cell-based; conditions: HT2, HT-2 cells, IL-2 50 U/ml, pSTAT5 HTRF; read-out: Cell Based Assay (μM) HT-2/IL-2/pSTAT5
Method: HT-2 cells were starved […] in RPMI phenol red with 10% fetal bovine serum for 4 hours in CO2 incubator maintained at 37° c. Compounds were diluted in DMSO and added to 96 well plate containing a final density of 1,20,000 cells per well. Cells and compounds are incubated for 30 minutes in CO2 incubator maintained at 37° C. and final DMSO concentration in cell based assay was 0.2%. Human recombinant cytokine, IL-2 (50 U/ml) was added to the plate containing cells and compound and incubated for 20 minutes with gentle tapping/shaking at every 5 minutes once. Compound mediated effects on STAT5 phosphorylation was measured in the lysates prepared by using CISBIO pSTAT5 detection kit by HTRF method. Background signal obtained from cells which were not activated with cytokines, was subtracted from vehicle controls and compound treated wells.

[5] = biological target: T2, Recombinant JAK3 (Homo sapiens, UniProt P52333); assay: JAK biochemical assay (LANCE Ultra TR-FRET), JAK3; conditions: recombinant JAK3, TR-FRET; read-out: Biochemical Assay (μM) JAK3
T2 construct: purchased Carna Biosciences
T2 sequence (P52333 1-1124): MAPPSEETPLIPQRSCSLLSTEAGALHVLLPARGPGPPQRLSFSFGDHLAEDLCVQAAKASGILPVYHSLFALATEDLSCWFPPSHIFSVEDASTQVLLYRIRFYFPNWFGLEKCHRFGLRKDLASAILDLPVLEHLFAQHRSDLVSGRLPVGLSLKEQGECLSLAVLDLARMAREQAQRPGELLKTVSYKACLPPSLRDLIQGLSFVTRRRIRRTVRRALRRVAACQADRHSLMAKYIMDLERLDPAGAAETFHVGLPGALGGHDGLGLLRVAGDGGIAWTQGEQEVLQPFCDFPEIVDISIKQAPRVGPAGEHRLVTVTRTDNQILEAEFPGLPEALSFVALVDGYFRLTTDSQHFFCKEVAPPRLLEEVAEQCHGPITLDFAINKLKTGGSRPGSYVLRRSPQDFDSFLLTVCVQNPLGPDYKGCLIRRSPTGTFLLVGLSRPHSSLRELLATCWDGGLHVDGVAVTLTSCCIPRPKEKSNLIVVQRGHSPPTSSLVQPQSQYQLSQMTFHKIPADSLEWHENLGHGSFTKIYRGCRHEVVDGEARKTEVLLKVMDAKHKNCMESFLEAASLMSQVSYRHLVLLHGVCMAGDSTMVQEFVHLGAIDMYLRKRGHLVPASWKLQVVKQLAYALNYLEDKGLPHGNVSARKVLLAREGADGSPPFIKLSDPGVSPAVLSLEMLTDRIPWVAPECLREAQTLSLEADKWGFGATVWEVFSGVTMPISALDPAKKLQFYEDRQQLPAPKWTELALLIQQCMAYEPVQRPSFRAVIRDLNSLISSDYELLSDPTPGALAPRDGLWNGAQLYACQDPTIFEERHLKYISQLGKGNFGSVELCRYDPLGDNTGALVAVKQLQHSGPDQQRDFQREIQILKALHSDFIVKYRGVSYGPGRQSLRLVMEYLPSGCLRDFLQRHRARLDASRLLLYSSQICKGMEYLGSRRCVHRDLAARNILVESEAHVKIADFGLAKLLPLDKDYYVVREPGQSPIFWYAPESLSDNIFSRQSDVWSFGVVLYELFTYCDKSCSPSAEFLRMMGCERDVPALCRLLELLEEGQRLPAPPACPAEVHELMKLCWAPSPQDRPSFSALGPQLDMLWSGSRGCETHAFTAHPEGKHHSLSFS
How it was run: as §2

[6] = biological target: T3, Recombinant JAK2 (Homo sapiens, UniProt O60674); assay: JAK biochemical assay (LANCE Ultra TR-FRET), JAK2; conditions: recombinant JAK2, TR-FRET; read-out: Biochemical Assay (μM) JAK2
T3 construct: purchased Carna Biosciences
How it was run: as §2

[7] = biological target: T4, Recombinant TYK2 (Homo sapiens, UniProt P29597); assay: JAK biochemical assay (LANCE Ultra TR-FRET), TYK2; conditions: recombinant TYK2, TR-FRET; read-out: Biochemical Assay (μM) TYK2
T4 construct: purchased Carna Biosciences
How it was run: as §2

T1 sequence (P23458 whole entry): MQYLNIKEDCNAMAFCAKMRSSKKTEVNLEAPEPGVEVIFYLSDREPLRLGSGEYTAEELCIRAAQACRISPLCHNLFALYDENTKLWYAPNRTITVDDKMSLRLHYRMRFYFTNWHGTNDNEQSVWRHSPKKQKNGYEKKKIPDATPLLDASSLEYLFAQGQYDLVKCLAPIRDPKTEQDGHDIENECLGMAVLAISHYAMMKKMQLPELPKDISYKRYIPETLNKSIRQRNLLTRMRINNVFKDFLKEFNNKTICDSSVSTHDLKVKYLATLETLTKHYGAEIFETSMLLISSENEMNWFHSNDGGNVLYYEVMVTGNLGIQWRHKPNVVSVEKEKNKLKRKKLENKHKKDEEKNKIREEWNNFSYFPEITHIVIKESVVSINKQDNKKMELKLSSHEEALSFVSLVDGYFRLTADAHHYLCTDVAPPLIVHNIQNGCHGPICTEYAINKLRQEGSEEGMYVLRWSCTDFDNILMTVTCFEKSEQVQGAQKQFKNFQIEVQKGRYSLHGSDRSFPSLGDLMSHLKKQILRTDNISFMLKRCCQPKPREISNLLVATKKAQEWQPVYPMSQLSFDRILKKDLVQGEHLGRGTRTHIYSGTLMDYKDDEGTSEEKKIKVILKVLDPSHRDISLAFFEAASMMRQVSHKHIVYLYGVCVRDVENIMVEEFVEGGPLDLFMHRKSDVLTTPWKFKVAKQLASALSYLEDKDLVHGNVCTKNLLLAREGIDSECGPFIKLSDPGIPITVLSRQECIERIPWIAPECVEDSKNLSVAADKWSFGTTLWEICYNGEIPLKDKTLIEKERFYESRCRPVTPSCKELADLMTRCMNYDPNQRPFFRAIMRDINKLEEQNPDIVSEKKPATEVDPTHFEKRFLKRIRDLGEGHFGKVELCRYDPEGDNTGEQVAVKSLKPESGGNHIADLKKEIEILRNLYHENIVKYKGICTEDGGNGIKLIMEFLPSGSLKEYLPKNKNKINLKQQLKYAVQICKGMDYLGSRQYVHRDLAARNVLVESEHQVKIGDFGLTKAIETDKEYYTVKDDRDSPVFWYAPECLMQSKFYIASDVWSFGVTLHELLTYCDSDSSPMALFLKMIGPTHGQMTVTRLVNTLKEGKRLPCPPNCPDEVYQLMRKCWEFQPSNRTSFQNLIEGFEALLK
T4 sequence (P29597 whole entry): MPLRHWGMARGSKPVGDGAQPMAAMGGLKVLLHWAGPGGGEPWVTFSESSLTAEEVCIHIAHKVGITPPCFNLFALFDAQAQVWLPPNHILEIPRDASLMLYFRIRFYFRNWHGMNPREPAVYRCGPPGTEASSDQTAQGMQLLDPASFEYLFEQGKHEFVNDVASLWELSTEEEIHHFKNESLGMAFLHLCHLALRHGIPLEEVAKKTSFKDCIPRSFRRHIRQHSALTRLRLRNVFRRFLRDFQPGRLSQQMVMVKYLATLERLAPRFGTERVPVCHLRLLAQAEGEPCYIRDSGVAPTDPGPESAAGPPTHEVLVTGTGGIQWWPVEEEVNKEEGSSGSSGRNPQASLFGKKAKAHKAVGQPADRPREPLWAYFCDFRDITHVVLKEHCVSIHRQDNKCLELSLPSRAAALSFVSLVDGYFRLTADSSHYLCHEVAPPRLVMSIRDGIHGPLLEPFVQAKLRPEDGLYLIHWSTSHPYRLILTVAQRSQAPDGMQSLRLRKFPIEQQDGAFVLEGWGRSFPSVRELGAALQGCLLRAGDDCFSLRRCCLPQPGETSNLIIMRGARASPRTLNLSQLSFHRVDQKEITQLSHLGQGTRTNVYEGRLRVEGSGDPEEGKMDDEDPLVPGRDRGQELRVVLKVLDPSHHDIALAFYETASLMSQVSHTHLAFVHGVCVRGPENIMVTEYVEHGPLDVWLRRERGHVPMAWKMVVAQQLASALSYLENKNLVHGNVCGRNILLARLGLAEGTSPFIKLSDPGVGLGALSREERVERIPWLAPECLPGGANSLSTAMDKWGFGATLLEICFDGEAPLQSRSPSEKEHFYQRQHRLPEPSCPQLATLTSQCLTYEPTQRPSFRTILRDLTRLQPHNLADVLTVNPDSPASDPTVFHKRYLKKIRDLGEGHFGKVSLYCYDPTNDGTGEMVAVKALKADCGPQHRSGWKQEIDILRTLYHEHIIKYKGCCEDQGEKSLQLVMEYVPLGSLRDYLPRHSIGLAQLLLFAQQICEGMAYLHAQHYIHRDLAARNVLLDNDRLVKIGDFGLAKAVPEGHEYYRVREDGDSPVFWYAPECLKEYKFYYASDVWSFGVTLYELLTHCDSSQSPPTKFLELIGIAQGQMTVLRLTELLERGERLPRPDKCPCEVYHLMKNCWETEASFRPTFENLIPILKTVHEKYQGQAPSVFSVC
T3 sequence (O60674 whole entry): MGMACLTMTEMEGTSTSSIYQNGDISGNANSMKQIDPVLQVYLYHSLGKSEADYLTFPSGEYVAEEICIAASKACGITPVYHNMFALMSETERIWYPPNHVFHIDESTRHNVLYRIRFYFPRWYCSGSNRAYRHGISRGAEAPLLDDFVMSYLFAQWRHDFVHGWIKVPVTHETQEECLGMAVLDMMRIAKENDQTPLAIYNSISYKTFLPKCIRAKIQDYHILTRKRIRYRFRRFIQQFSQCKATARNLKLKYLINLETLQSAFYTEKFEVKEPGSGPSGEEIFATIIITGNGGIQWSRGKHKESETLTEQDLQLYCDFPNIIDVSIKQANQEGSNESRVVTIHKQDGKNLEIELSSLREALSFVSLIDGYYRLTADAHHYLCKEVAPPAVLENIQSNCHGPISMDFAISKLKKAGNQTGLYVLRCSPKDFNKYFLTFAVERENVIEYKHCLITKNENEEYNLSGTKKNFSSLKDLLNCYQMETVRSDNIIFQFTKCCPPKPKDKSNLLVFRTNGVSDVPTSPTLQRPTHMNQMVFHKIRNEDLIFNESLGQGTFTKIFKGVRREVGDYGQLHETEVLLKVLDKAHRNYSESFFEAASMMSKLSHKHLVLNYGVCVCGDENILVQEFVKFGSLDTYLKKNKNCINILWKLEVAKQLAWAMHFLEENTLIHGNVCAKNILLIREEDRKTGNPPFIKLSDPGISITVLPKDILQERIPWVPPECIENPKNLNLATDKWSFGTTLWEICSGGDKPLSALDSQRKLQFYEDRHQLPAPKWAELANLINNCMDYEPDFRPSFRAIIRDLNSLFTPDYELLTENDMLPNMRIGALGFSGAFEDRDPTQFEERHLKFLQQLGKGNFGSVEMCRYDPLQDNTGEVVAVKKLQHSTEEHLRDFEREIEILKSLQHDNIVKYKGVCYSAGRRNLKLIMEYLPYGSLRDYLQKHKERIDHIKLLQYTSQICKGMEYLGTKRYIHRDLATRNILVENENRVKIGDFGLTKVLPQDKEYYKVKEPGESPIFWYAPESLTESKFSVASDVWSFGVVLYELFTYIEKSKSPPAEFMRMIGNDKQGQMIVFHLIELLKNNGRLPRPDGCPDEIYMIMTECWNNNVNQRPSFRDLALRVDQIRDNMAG

IC50 [1] [µM]	IC50 [2] [µM]	IC50 [3] [µM]	IC50 [4] [µM]	IC50 [5] [µM]	IC50 [6] [µM]	IC50 [7] [µM]	SMILES
> 0.5		< 0.1	> 0.5	< 0.1	< 0.1	> 0.5	OC(CCN1CCOCC1)(c1ccc(-n2cc(-c3ccnc4[nH]cnc34)cn2)nc1)C(F)(F)F (stereo not shown) [Example 1230, 2-(6-(4-(3H-imidazo[4,5-b]pyridin-7-yl)-1H-pyrazol-1-yl)pyridin-3-yl)-1,1,1-trifluoro-4-morpholinobutan-2-ol]
> 0.1	1	0.003	> 0.1		> 0.03	> 0.1	CC(C)NC(=O)CCC(O)(c1ccc(-n2cc(-c3ccnc4[nH]cnc34)cn2)nc1)C(F)(F)F (stereo not shown) [Example 1238, 4-(6-(4-(3H-imidazo[4,5-b]pyridin-7-yl)-1H-pyrazol-1-yl)pyridin-3-yl)-5,5,5-trifluoro-4-hydroxy-N-isopropylpentanamide]
1.5		0.006	2	0.006	0.034	0.79	CNC(=O)N1CC(C(O)(c2ccc(-n3cc(-c4ccnc5[nH]cnc45)cn3)nc2)C(F)(F)F)C1 (stereo not shown) [Example 1246, 3-(1-(6-(4-(3H-imidazo[4,5-b]pyridin-7-yl)-1H-pyrazol-1-yl)pyridin-3-yl)-2,2,2-trifluoro-1-hydroxyethyl)-N-methylazetidine-1-carboxamide]
> 0.75		< 0.1	> 0.8	< 0.1	< 0.1	> 0.5	N#CCC(=O)NCCC(c1ccc(-n2cc(-c3ccnc4[nH]cnc34)cn2)nc1)C(F)(F)F (stereo not shown) [Example 1248, N-(3-(6-(4-(3H-imidazo[4,5-b]pyridin-7-yl)-1H-pyrazol-1-yl)pyridin-3-yl)-4,4,4-trifluorobutyl)-2-cyanoacetamide]
> 1		< 0.1	> 1	< 0.1	< 0.1	> 1	N#CC1CN(C(=O)CCC(c2ccc(-n3cc(-c4ccnc5[nH]cnc45)cn3)nc2)C(F)(F)F)C1 (stereo not shown) [Example 1250, 1-(4-(6-(4-(3H-imidazo[4,5-b]pyridin-7-yl)-1H-pyrazol-1-yl)pyridin-3-yl)-5,5,5-trifluoropentanoyl)azetidine-3-carbonitrile]
1		< 0.1	> 2	< 0.1	< 0.1	> 0.5	CC(C)N1CCC([C@](O)(c2ccc(-n3cc(-c4ccnc5[nH]cnc45)cn3)cc2)C(F)(F)F)C1 (stereo partly drawn) [Example 1251, (S)-1-(4-(4-(3H-imidazo[4,5-b]pyridin-7-yl)-1H-pyrazol-1-yl)phenyl)-2,2,2-trifluoro-1-(1-isopropylpyrrolidin-3-yl)ethanol]
1.1		< 0.1	1.63	< 0.1	< 0.1	> 0.5	CC(C)N1CCC([C@@](O)(c2ccc(-n3cc(-c4ccnc5[nH]cnc45)cn3)cc2)C(F)(F)F)C1 (stereo partly drawn) [Example 1252, (R)-1-(4-(4-(3H-imidazo[4,5-b]pyridin-7-yl)-1H-pyrazol-1-yl)phenyl)-2,2,2-trifluoro-1-(1-isopropylpyrrolidin-3-yl)ethanol]

The next lines start with the compound.

SMILES	IC50 [1] [µM]	IC50 [2] [µM]	IC50 [3] [µM]	IC50 [4] [µM]	IC50 [5] [µM]	IC50 [6] [µM]	IC50 [7] [µM]
FC(F)(F)[C@@H](c1ccc(-n2cc(-c3ccnc4[nH]cnc34)cn2)nc1)C1COC1 (single isomer, unassigned) [Example 1184]	> 0.8	> 1	< 0.1	1.5	< 0.1	> 0.1	> 1
FC(F)(F)[C@H](c1ccc(-n2cc(-c3ccnc4[nH]cnc34)cn2)nc1)C1COC1 (single isomer, unassigned) [Example 1185]	2	> 1	< 0.1	> 3	> 0.1	> 0.1	> 1
O=C(NCC(F)(F)F)N1CCN(c2ccnc3[nH]c(=O)[nH]c23)CC1 [Example 1011, N-(2,2,2-trifluoroethyl)-4-(2,3-dihydro-2-oxo-1H-imidazo[4,5-b]pyridin-7-yl)piperazine-1-carboxamide]	> 10	> 10		> 10	> 1	> 1	> 1
O=C(Nc1ccncc1)N1CCN(c2ccnc3[nH]c(=O)[nH]c23)CC1 [Example 1014, 4-(2,3-dihydro-2-oxo-1H-imidazo[4,5-b]pyridin-7-yl)-N-(pyridin-4-yl)piperazine-1-carboxamide]	> 10	> 10		> 10	> 1		> 1
N#CCNC(=O)n1cc(-c2ccnc3[nH]c(=O)[nH]c23)cn1 [Example 1027, N-(cyanomethyl)-4-(2,3-dihydro-2-oxo-1H-imidazo[4,5-b]pyridin-7-yl)-1H-pyrazole-1-carboxamide]	> 10	> 10	0.028	> 10	0.146	0.044	0.096
CS(=O)(=O)NCc1ccc(-n2cc(-c3ccnc4[nH]cnc34)cn2)nc1 [Example 1090, N-((6-(4-(3H-imidazo[4,5-b]pyridin-7-yl)-1H-pyrazol-1-yl)pyridin-3-yl)methyl)methanesulfonamide]	> 1	> 10	0.053	> 1	0.12	0.3	> 1
CCC(c1ccc(-n2cc(-c3ccnc4[nH]cnc34)cn2)nc1)C(F)(F)F (stereo not shown) [Example 1122, 7-(1-(5-(1,1,1-trifluorobutan-2-yl)pyridin-2-yl)-1H-pyrazol-4-yl)-3H-imidazo[4,5-b]pyridine]	> 1	> 1	> 0.1	> 1	> 0.5	> 0.5	> 1
CNS(=O)(=O)CCC(c1ccc(-n2cc(-c3ccnc4[nH]cnc34)cn2)nc1)C(F)(F)F (stereo not shown) [Example 1142, 3-(6-(4-(3H-imidazo[4,5-b]pyridin-7-yl)-1H-pyrazol-1-yl)pyridin-3-yl)-4,4,4-trifluoro-N-methylbutane-1-sulfonamide]	> 0.5	> 1	< 0.1	> 0.5	< 0.1		> 1
